In patent US9388147B2 (Receptos, Inc., priority 2009, dated 2016) one finds EC50 data, which are given here for 19 compounds.

S1P1/EDG1, sequence (P21453 whole entry): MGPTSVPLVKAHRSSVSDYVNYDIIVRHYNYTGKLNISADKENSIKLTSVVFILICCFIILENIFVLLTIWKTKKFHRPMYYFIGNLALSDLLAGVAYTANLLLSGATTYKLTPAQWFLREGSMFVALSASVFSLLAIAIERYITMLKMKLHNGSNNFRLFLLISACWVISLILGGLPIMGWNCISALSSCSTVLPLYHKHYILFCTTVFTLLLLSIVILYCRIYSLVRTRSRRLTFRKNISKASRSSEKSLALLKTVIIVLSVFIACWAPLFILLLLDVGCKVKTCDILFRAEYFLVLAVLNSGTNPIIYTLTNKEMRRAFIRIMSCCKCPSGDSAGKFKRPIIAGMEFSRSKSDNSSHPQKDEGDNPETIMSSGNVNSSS

The experiment addresses S1P1/EDG1 (Homo sapiens, UniProt P21453). Briefly: S1P1 CRE-bla CHOK1 reporter assay, inhibition of Forskolin induced cAMP. The conditions noted are these: agonist activity range, S1P1 CRE-bla CHOK1, 2 μM Forskolin; read-out: S1P1 ACTIVITY
Type of experiment: cell-based. Here is the method:
Generation of S1P1-Mediated Inhibition of cAMP Reporter Assay
A mammalian expression plasmid containing S1P1/EDG1 cloned into pcDNA3.1 was purchased from Missouri S&T cDNA Resource Centre. […] S1P1/pcDNA3.1 was transfected into the CRE-bla CHO K1 (Invitrogen) cell line, and stable single cell clones were selected using standard techniques.
S1P1 CRE-Bla CHOK1 Reporter Assay—Characterization of S1P1 Agonists
Cells were seeded into 384-well black wall/clear bottom plates at 10^4 cells/well/19.5 μl assay media (DMEM-phenol free, 0.5% charcoal/dextran stripped serum, 2 mM glutamine, 0.1 mM NEAA, 1 mM Na-Pyruvate, 25 mM Hepes) and incubated for 18 hrs at 37° C. in 5% CO2. Dose response curves (10-point) were generated in 10 mM Hepes, 0.1% Pluronic F127, in the presence of Forskolin. Cells were treated with 0.5 μl compound in the presence of 2 μM Forskolin for 4 hrs at 37° C. The FRET-based β-lactamase fluorescent substrate (LiveBLAzer™-FRET B/G Loading Kit CC4-AM; Invitrogen) was prepared according to manufacturer's directions, and incubated with cells for 2 hrs at room temperature. […] Data was analyzed by non-linear regression to determine the EC50 for inhibition of Forskolin induced cAMP.
In general terms: A reporter such as luciferase makes a cellular process visible.
Regarding `CC(C)Oc1ccc(-c2nc(-c3cccc4c3CC[C@H]4N)no2)cc1` [Compound 96, (R)-4-(5-(4-isopropoxyphenyl)-1,2,4-oxadiazol-3-yl)-2,3-dihydro-1H-inden-1-amine], the EC50 was greater than 5 nM. `CC(C)Oc1cc(-c2nc(-c3cccc4c3CC[C@H]4N)no2)ccc1C#N` [Compound 98, (R)-4-(3-(1-amino-2,3-dihydro-1H-inden-4-yl)-1,2,4-oxadiazol-5-yl)-2-isopropoxy benzonitrile]: the EC50 is greater than 5 nM. The figure for `CC(C)Oc1ccc(C#N)cc1-c1nc(-c2cccc3c2CC[C@H]3N)no1` [Compound 99, (R)-3-(3-(1-amino-2,3-dihydro-1H-inden-4-yl)-1,2,4-oxadiazol-5-yl)-4-isopropoxy benzonitrile] is greater than 5 nM. The result for `N#Cc1cc(-c2nc(-c3cccc4c3CC[C@H]4N)no2)ccc1OCC1CC1` [Compound 100, (R)-5-(3-(1-amino-2,3-dihydro-1H-inden-4-yl)-1,2,4-oxadiazol-5-yl)-2-(cyclopropylmethoxy)benzonitrile] reads 0.5 to 5 nM; that for `CC(C)Oc1ccc(-c2nc(-c3cccc4c3CC[C@H]4NCCO)no2)cc1Br` [Compound 101], 0.5 to 5 nM; that for `CN[C@H]1CCc2c(-c3noc(-c4ccc(OC(C)C)c(C#N)c4)n3)cccc21` [Compound 105], 0.05 to 0.5 nM. The figure for `CCN[C@H]1CCc2c(-c3noc(-c4ccc(OC(C)C)c(C#N)c4)n3)cccc21` [Compound 107] is 0.05 to 0.5 nM; for `CC(C)Oc1ccc(-c2nc(-c3cccc4c3CC[C@@H]4N(C)C(=O)CO)no2)cc1C#N` [Compound 110] it is 0.05 to 0.5 nM. With `CC(C)Oc1ccc(-c2nc(-c3cccc4c3CC[C@H]4N(CCO)S(C)(=O)=O)no2)cc1C#N` [Compound 112, (R)-N-(4-(5-(3 cyano-4-isopropoxyphenyl)-1,2,4-oxadiazol-3-yl)-2,3-dihydro-1H-inden-1-yl)-N-(2-hydroxyethyl)methanesulfonamide], the EC50 fell in the range of 0.5 to 5 nM. In the case of `CC(=O)N(CCO)[C@@H]1CCc2c(-c3noc(-c4ccc(OC(C)C)c(C#N)c4)n3)cccc21` [Compound 113], the EC50 lay within 0.5 to 5 nM. As to `CCN(CCO)[C@@H]1CCc2c(-c3noc(-c4ccc(OC(C)C)c(C#N)c4)n3)cccc21` [Compound 114], the EC50 lay in the range of 0.05 to 0.5 nM. `CC(C)Oc1ccc(-c2nc(-c3cccc4c3CC[C@H]4N(C)CC(=O)N(C)C)no2)cc1C#N` [Compound 115]: the EC50 lay in the range of 0.5 to 5 nM. The result for `CCN(CC(=O)N(C)C)[C@@H]1CCc2c(-c3noc(-c4ccc(OC(C)C)c(C#N)c4)n3)cccc21` [Compound 116] reads 0.5 to 5 nM. With `CC(C)Oc1ccc(-c2nc(-c3cccc4c3CC[C@H]4N(CCO)S(=O)(=O)c3ccccc3)no2)cc1C#N` [Compound 117], the EC50 was greater than 5 nM. The result for `CC(C)Oc1ccc(-c2nc(-c3cccc4c3CC[C@H]4N(CCO)CCO)no2)cc1C#N` [Compound 118] reads 0.05 to 0.5 nM. The result for `CC(C)Oc1ccc(-c2nc(-c3cccc4c3CC[C@@H]4NC[C@@H](O)[C@H](O)[C@H](O)CO)no2)cc1C#N` [Compound 119, 2-isopropoxy-5-(3-((S)-1-(((2R,3S,4R)-2,3,4,5-tetrahydroxypentyl)amino)-2,3-dihydro-1H-inden-4-yl)-1,2,4-oxadiazol-5-yl)benzonitrile] reads 0.5 to 5 nM. The result for `CC(C)Oc1ccc(-c2nc(-c3cccc4c3CC[C@@H]4NCC(=O)N(C)C)no2)cc1C(N)=O` [Compound 121] reads greater than 5 nM. For `CC(C)Oc1ccc(-c2nc(-c3cccc4c3CC[C@H]4NCCF)no2)cc1C#N` [Compound 124, (R)-5-(3-(1-((2-fluoroethyl)amino)-2,3-dihydro-1H-inden-4-yl)-1,2,4-oxadiazol-5-yl)-2-isopropoxybenzonitrile], the EC50 lay in the range of 0.05 to 0.5 nM. As to `CC(C)Oc1ccc(-c2nc(-c3cccc4c3CC[C@H]4NCCS(C)(=O)=O)no2)cc1C#N` [Compound 125, (R)-2-isopropoxy-5-(3-(1-((2-(methylsulfonyl)ethyl)amino)-2,3-dihydro-1H-inden-4-yl)-1,2,4-oxadiazol-5-yl)benzonitrile], the EC50 lay within 0.05 to 0.5 nM.
